Format in all cases: cell-based
Test [1] has as its system Alternaria alternata. In words: in vitro-Test with Alternaria alternata. The method, then: (§1) Wells of 96-well microtiter plates are filled with 30 μl of a preparation of test compound or compound combination in methanol+emulsifier alkylaryl-polyglycol-ether. Thereafter, the solvent is evaporated in a hood. At the next step, into each well 200 μl of liquid growth medium is given, that has been amended with an appropriate concentration of spores or mycelium suspension of the test fungus.
(§2) With the aid of a photometer the extinction in all wells is measured at the wavelength of 600 nm.
(§3) The microtiter plates are incubated for 3 to 7 days at 20° C. and 85% relative humidity. After the incubation inhibition of growth is determined photometrically. Efficacy is calculated in relation to the untreated control, 0% efficacy means fungal growth as high as in untreated control while 100% efficacy means no fungal growth is measured.

Test [2] deals with Cordana musae. Briefly: in vitro-Test with Cordana musae. The method, then:
as §1, §2, §3

Test [3] has as its system Colletotrichum coccodes. In words: in vitro-Test with Colletotrichum coccodes. The method, then:
as §1, §2, §3

Test [4] relates to Fusarium culmorum. Briefly: in vitro-Test with Fusarium culmorum. As for the experimental part: as §1, §2, §3
Test [5] has as its system Parastagonospora nodorum. Briefly: in vitro-Test with Parastagonospora nodorum. The method, then:
as §1, §2, §3

Test [6] concerns Cercospora beticola. In words: in vitro-Test with Cercospora beticola. The method, then: as §1, §2, §3
Test [7] has as its system Ustilago segetum var. avenae. In words: in vitro-Test with Ustilago segetum var. avenae. The method, then: as §1, §2, §3
For test [8], the system named is Diaporthe citri. In words: in vitro-Test with Diaporthe citri. The method, then:
as §1, §2, §3

The subject of test [9] is Botrytis cinerea. Briefly: in vitro-Test with Botrytis cinerea. The method, then:
as §1, §2, §3

Where “and” joins values, the source holds several entries; their conditions need not be identical. Equal entries are not always repeated.

Take `CO/N=C(/C1=NOCCO1)c1ccccc1Oc1ncnc(Oc2ccccc2Cl)c1F` [(3.012), fluoxastrobin]: the efficacy % in test [1] (0.4 ppm) is listed as 87%; in [2] (2 ppm), 74%; in test [2] (10 ppm), 81%; in test [3] (2 ppm), 85%; in [4] (0.4 ppm), 26%; in test [4] (2 ppm), 34%. For the same compound, in test [4] (10 ppm), the efficacy % is 47% and 54%.
As for `OC(Cc1ccccc1Cl)(Cn1nc[nH]c1=S)C1(Cl)CC1` (stereo not drawn) [(1.018), prothioconazole], the efficacy % in test [1] (0.004 ppm) turned out to be 26%; in test [1] (0.02 ppm), 13%; in [1] (0.1 ppm) it was 37%; in test [5] (0.02 ppm) it was 83%; in [5] (0.1 ppm), 97%; in [5] (0.5 ppm) it was 97%. Further, the efficacy % is 2% in test [5] (single compound at 0.004 ppm); 3% and 0% and 2% in test [2] (0.004 ppm); 99% in [2] (0.5 ppm); 100% in test [6] (0.1 ppm); 96% in test [6] (0.5 ppm); 45% in test [7] (0.004 ppm). Also, the efficacy % in test [7] (0.1 ppm) was determined as 99%; in test [7] (0.5 ppm) it was 99%; in test [3] (0.004 ppm), 0%; in [8] (0.004 ppm), 14%; in test [8] (0.1 ppm) it was 98%; in test [8] (0.5 ppm), 99%. The efficacy % in test [4] (0.004 ppm) is given as 3%; in [4] (0.02 ppm), 0%.
In the case of `COC(=O)C(O)(Cn1cncn1)c1ccc(Oc2ccc(Cl)cc2)cc1Cl` (stereo not drawn) [(I-1), Methyl 2-[2-chloro-4-(4-chlorophenoxy)phenyl]-2-hydroxy-3-(1,2,4-triazol-1-yl)propanoate], the efficacy % was determined as 87% in test [5] (0.1 ppm); 98% in test [5] (0.5 ppm); 96% in test [5] (2.5 ppm); 0% in test [5] (single compound at 0.02 ppm); 0% in test [2] (0.02 ppm); 5% in test [2] (0.1 ppm). Besides, the efficacy % in test [2] (0.5 ppm) turned out to be 15%; in [2] (2.5 ppm) it was 99%; in test [6] (0.5 ppm), 100%; in test [6] (2.5 ppm) it was 100%; in test [7] (0.02 ppm) it was 9%; in test [7] (0.5 ppm), 96%. The efficacy % turned out to be 98% in test [7] (2.5 ppm); 0% in test [3] (0.1 ppm); 32% in test [3] (0.5 ppm); 3% in test [9] (0.02 ppm); 0% in test [9] (0.2 ppm); 27% in [9] (0.5 ppm). Further, the efficacy % in [8] (0.1 ppm) was 0%; in test [8] (0.5 ppm), 96%; in test [4] (0.02 ppm), 14% and 10% and 4%; in test [4] (0.5 ppm) it was 0%.
For `Cc1nn(C)c(F)c1C(=O)Nc1ccccc1C(C)CC(C)C` (stereo not drawn) [(2.017), penflufen], the efficacy % is given as 10% in [1] (0.04 ppm); 65% in [1] (1 ppm); 0% in test [5] (0.2 ppm); 42% in [5] (5 ppm); 0% in test [5] (single compound at 0.04 ppm); 4% in test [5] (single compound at 0.2 ppm). Also, the efficacy % amounted to 17% in test [5] (single compound at 1 ppm) and 48% in test [5] (single compound at 5 ppm).
With `CON=C(C(=O)OC)c1ccccc1CON=C(C)c1cccc(C(F)(F)F)c1` [(3.020), trifloxystrobin], the efficacy % in test [1] (0.008 ppm) came to 22%; in test [1] (0.04 ppm), 62%; in [5] (single compound at 0.008 ppm), 32%; in test [5] (single compound at 0.04 ppm), 73%; in test [5] (single compound at 1 ppm), 97%; in [3] (0.008 ppm), 7%. In addition, the efficacy % in [9] (0.008 ppm) turned out to be 5%; in test [9] (0.04 ppm), 17%; in [9] (0.2 ppm) it was 13%; in test [4] (0.008 ppm) it was 0%; in [4] (0.04 ppm) it was 19%.
Regarding mancozeb [(5.013)], the efficacy % was 0% in test [1] (0.16 ppm); 0% and 1% in test [1] (0.8 ppm); 74% in test [1] (20 ppm); 0% in test [5] (single compound at 0.16 ppm); 0% in test [2] (0.16 ppm); 0% in test [2] (0.8 ppm). Further, the efficacy % was 12% in test [2] (4 ppm); 98% and 100% in [6] (20 ppm); 24% in test [3] (4 ppm); 4% in [9] (0.16 ppm); 6% in [9] (0.8 ppm); 6% in [9] (4 ppm). Further, the efficacy % is listed as 0% in [8] (0.8 ppm); 96% in [8] (20 ppm); 0% in test [4] (0.16 ppm); 0% in test [4] (0.8 ppm); 0% in test [4] (4 ppm).
For the compound `O=C(NC1CCC1c1ccc(Cl)cc1Cl)c1cccnc1C(F)(F)F` (stereo in doubt) [(2.060), cyclobutrifluram], the efficacy % is 80% in test [1] (0.04 ppm); 88% in test [1] (5 ppm); 0% in test [5] (5 ppm); 5% in test [5] (single compound at 0.04 ppm); 13% in test [5] (single compound at 0.2 ppm); 98% in test [5] (single compound at 5 ppm). The efficacy % amounted to 0% in test [2] (0.04 ppm); 0% in test [2] (0.2 ppm); 0% in [3] (0.04 ppm); 0% in test [3] (0.2 ppm); 0% in [3] (1 ppm); 12% in test [3] (5 ppm). Moreover, the efficacy % was 49% in [9] (0.04 ppm); 77% in test [9] (0.2 ppm); 92% in test [9] (1 ppm); 47% in [4] (0.04 ppm); 56% in [4] (5 ppm).
Regarding `Cc1cccc(-n2nnn(C)c2=O)c1COc1ccn(-c2ccc(Cl)cc2)n1` [(3.030), metyltetraprole], the efficacy % in test [2] (0.08 ppm) was 44%; in test [2] (0.4 ppm), 70%; in test [2] (2 ppm), 78%; in test [7] (10 ppm) it was 34%; in test [3] (0.08 ppm), 25%; in [3] (0.4 ppm) it was 73%. Besides, the efficacy % is on record as 100% in test [3] (10 ppm); 11% in [9] (0.008 ppm); 34% in test [9] (0.4 ppm); 41% in test [9] (2 ppm); 81% in [9] (10 ppm); 95% in [8] (2 ppm). The efficacy % in [8] (10 ppm) is reported as 99%.
With `CC(C)c1ccc(Cl)cc1CN(C(=O)c1c(C(F)F)nn(C)c1F)C1CC1` [(2.038), isoflucypram], the efficacy % in test [1] (1 ppm) was 76%; in test [6] (0.04 ppm), 0%; in test [9] (0.2 ppm) it was 74%; in [9] (1 ppm) it was 86%; in [4] (0.04 ppm), 0%.
As for `O=C(NCCc1ncc(C(F)(F)F)cc1Cl)c1ccccc1C(F)(F)F` [(2.005), fluopyram], the efficacy % in test [1] (0.16 ppm) is 67%; in test [1] (20 ppm), 89%; in [5] (4 ppm), 49%; in test [5] (20 ppm), 86%; in test [6] (0.16 ppm), 25%; in [6] (0.8 ppm), 0%. Further, the efficacy % was determined as 11% in test [6] (4 ppm), 48% in test [9] (0.16 ppm), 77% in test [9] (0.8 ppm) and 97% in test [9] (20 ppm).
Consider inpyrfluxam [(2.027)], for which the efficacy % in test [2] (1 ppm) was 3%; in test [8] (1 ppm), 86% and 84%.

Values taken from patent US20230200391A1, “ACTIVE COMPOUND COMBINATIONS AND FUNGICIDE COMPOSITIONS COMPRISING THOSE” (priority 2020, published 2023).
